The source of these data is patent US20040171073A1, “Compounds for modulation of cholesterol transport” (Massachusetts Institute of Technology, priority 2002, published 2004).

In the first assay the target is T1, murine SR-BI (Mus musculus, UniProt Q61009).
T1 construct: expressed in transfected cells; host or cells: ldlA-7 (LDL receptor deficient Chinese hamster ovary cells)
T1 sequence (Q61009 1-509): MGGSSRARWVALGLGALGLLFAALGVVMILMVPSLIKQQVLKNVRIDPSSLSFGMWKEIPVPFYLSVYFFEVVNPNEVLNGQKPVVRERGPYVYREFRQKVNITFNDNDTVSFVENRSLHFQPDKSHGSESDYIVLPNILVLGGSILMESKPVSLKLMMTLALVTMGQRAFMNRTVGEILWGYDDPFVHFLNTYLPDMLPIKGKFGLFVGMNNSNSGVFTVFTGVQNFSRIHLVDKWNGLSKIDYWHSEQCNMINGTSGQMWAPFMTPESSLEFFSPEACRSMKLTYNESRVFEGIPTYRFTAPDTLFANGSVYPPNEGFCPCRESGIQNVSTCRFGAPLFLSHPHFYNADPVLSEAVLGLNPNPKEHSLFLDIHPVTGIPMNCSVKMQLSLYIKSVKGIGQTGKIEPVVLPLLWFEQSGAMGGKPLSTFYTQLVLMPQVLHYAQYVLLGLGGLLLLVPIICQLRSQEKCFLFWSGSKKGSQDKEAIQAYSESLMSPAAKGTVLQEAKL
Nature of the assay: Uptake of DiI from DiI-HDL by ldlA[mSR-BI] cells (high throughput screen and concentration dependence). The format is cell-based. The following applies: Test 1; DiI uptake from DiI-HDL, compounds at nominal 10 micromolar, ldlA[mSR-BI] cells.
Take `O=C(NC(NC(=S)Nc1ccc2ccccc2c1)C(Cl)(Cl)Cl)c1cccc([N+](=O)[O-])c1` (stereo not drawn) [MIT 9952-336]: the “ENDOHDL Test 1” value was 0.54.

`O=C(Nc1cccc(NC(=O)c2ccccc2Cl)c1)c1cccc([N+](=O)[O-])c1` [MIT 9952-337]: the “ENDOHDL Test 1” value is reported as 0.6.

Turning to `COc1ccc([N+](=O)[O-])cc1NC(=O)c1ccccc1` [MIT 9952-338], the “ENDOHDL Test 1” value was 0.61.

Regarding `O=C(Nc1ccc(-c2nc3cc(NC(=O)c4ccccc4[N+](=O)[O-])ccc3o2)cc1)c1ccccc1[N+](=O)[O-]` [MIT 9952-339], the “ENDOHDL Test 1” value worked out at 0.58.

Consider `Nc1cc2cccnc2c2ncccc12` [MIT 9952-341], for which the “ENDOHDL Test 1” value is recorded as 0.61.

Still in this assay, the particulars now being: Test 2; DiI uptake from DiI-HDL, compounds at nominal 10 micromolar, ldlA[mSR-BI] cells.
Turning to `O=C(NC(NC(=S)Nc1ccc2ccccc2c1)C(Cl)(Cl)Cl)c1cccc([N+](=O)[O-])c1` (stereo not drawn) [MIT 9952-336], the “ENDOHDL Test 2” value came to 0.58.

For `O=C(Nc1cccc(NC(=O)c2ccccc2Cl)c1)c1cccc([N+](=O)[O-])c1` [MIT 9952-337], the “ENDOHDL Test 2” value is listed as 0.57.

On to `COc1ccc([N+](=O)[O-])cc1NC(=O)c1ccccc1` [MIT 9952-338], for which the “ENDOHDL Test 2” value stood at 0.6.

Take `O=C(Nc1ccc(-c2nc3cc(NC(=O)c4ccccc4[N+](=O)[O-])ccc3o2)cc1)c1ccccc1[N+](=O)[O-]` [MIT 9952-339]: the “ENDOHDL Test 2” value stood at 0.54.

As for `Nc1cc2cccnc2c2ncccc12` [MIT 9952-341], the “ENDOHDL Test 2” value amounted to 0.51.

The assay is the same for the next values; noted with them: ldlA[mSR-BI] cells; inhibition; mean ± SD, n=3.
In general, EC50 refers to the concentration that produces a half-maximal response. Turning to `c1ccc(-c2noc(-c3ccccc3)c3cccc2-3)cc1` [MIT 9952-19], it took 0.51 ± 0.15 µM to reach a half-maximal effect (EC50).

Molecule `COc1ccccc1NC(=O)Nc1ccc2ccccc2c1` [MIT 9952-29] had an EC50 of 2 ± 1 µM.

The target of another assay is T1, murine SR-BI. Nature of the assay: Uptake of [3H]cholesteryl ether from [3H]CE-HDL by ldlA[mSR-BI] cells. The format is cell-based.
Details: not given
How it is done:
(§1) Cells were pre-incubated with BLTs for 1 hr (or 2.5 hrs for transferrin, EGF and cholera toxin uptake experiments) and all the experiments were performed at 37° C. Detailed characterization of the BLTs and their effects was performed with compounds whose identities and purities were confirmed by LC-MS.
(§2) Assays for the uptake of lipids from DiI-HDL and [^3]CE-HDL, efflux of [^3H]cholesterol from labeled cells, and ^125I-HDL binding were performed as described by Acton et al. Science (1996) January 26;271(5248):518-20; Gu, et al. J Biol. Chem. (2000) September 29;275(39):29993-30001; and Ji, et al., J. Biol. Chem. (1997) 272, 20982-5. In some experiments, values were normalized so that the 100% of control represents activity in the absence of compounds and 0% represents activity determined in the presence of a 40-fold excess of unlabeled HDL or, for Y1-BS1 cells, in the presence of a 1:500 dilution of the KKB-1 blocking antibody (Gu, et al., 2000, generous gift from Karen Kozarsky). The amounts of cell-associated [^3H]cholesteryl ether are expressed as the equivalent amount of [^3H]CE-HDL protein (ng) to permit direct comparison of the relative amounts of ^125I-HDL binding and [^3H]CE uptake.
Consider `c1ccc(-c2noc(-c3ccccc3)c3cccc2-3)cc1` [MIT 9952-19], for which the “ICCE95 concentration (inhibits [3H]CE uptake by 95%)” value was found to be 50 µM.

Consider `COc1ccccc1NC(=O)Nc1ccc2ccccc2c1` [MIT 9952-29], for which the “ICCE95 concentration (inhibits [3H]CE uptake by 95%)” value amounted to 50 µM.

Still in this assay, the particulars now being: inhibition, mean ± SD, n=6 (n=5 where footnoted), read-out: (A) EC50 [^3H]CEt HDL uptake.
On to `c1ccc(-c2noc(-c3ccccc3)c3cccc2-3)cc1` [MIT 9952-19], for which the EC50 came to 2.3 ± 1.5 µM.

Consider `COc1ccccc1NC(=O)Nc1ccc2ccccc2c1` [MIT 9952-29], for which the EC50 turned out to be 3.9 µM.

A further assay has as its target T2, SR-BI (Mus musculus, UniProt Q61009).
T2 construct: endogenous in cells; host or cells: Y1-BS1 murine adrenocortical cells (ACTH induced)
T2 sequence (Q61009 1-509): T1 sequence (Q61009 1-509)
Nature of the assay: Uptake of [3H]CE from [3H]CE-HDL by Y1-BS1 adrenocortical cells. The format is cell-based, murine. The following applies: inhibition, n=2, read-out: (A) EC50 [^3H]CEt HDL uptake (Y1-BS1 cells).
Source text: Biol. Chem. 273, 26338-48; Gu, et al. (2000) J. Biol. Chem. 275, 29993-30001; Acton, et al. (1994) J. Biol. Chem. 269, 21003-9; Pitas, et al. (1981) Arteriosclerosis 1, 177-85). LDL receptor deficient Chinese hamster ovary cells that express low levels of endogenous SR-BI, ldlA-7 (Kingsley, et al. (1984) Proc. Nat. Acad. Sci. USA 81, 5454-8), ldlA-7 cells stably transfected to express high levels of murine SR-BI (ldlA[mSR-BI])(Acton, et al., 1996), Y1-BS1 murine adrenocortical cells that express high levels of SR-BI after induction with ACTH (Rigotti, et al. (1996) J. Biol. Chem. 271, 33545-9), monkey kidney BS-C1 cells (Kapoor, et al. (2000) Journal of Cell Biology 150, 975-88) and HeLa cells (Temel, et al. (2002) J Biol Chem 8, 8) were maintained as previously described.
as §1, §2
Consider `c1ccc(-c2noc(-c3ccccc3)c3cccc2-3)cc1` [MIT 9952-19], for which the EC50 was determined as 1.7 µM.

For the molecule `COc1ccccc1NC(=O)Nc1ccc2ccccc2c1` [MIT 9952-29], the EC50 worked out at 4.4 µM.

The next assay has as its target T1, murine SR-BI. Nature of the assay: Efflux of [3H]cholesterol from ldlA[mSR-BI] cells to HDL.
Details: not given
The format is cell-based. How it is done:
as §1, §2
In addition to mediating selective lipid uptake from HDL, SR-BI can facilitate the efflux of unesterified cholesterol from cells to HDL particles (Jian, et al. (1998) J Biol Chem 273, 5599-606. Ji, et al. (1997) J. Biol. Chem. 272, 20982-5). To determine if the BLTs could inhibit this SR-BI-mediated lipid transport activity, cells were labeled with [^3H]cholesterol and its efflux to unlabeled HDL measured in the presence or absence of the BLTs. (FIG. 2C, table II). Cells were incubated for 3 hrs in the absence (top panels) or presence (bottom panels) of 50 micromolar BLT-1 (MIT 9952-53) and epifluorescence light microscopy was used to monitor the following cellular activities: clathrin-dependent endocytosis of fluorescently labeled transferrin (A,B; HeLa cells) and EGF (C,D; HeLa cells); clathrin-independent endocytosis of fluorescently labeled cholera toxin (E, F; BSC-1 cells), and transport of the temperature sensitive fluorescent membrane protein VSVG^ts045-EGFP from the ER to the cell surface (G,H; BSC-1 cells). In addition, the intracellular distributions of the actin cytoskeleton (visualized with rhodamine labeled phalloidin, I,J; ldlA-[mSRBI] cells) and the tubulin network (visualized with fluorescently labeled antibodies specific to y-tubulin, K,L; BSC-1 cells) were determined. BLT-1 (MIT 9952-53) and the other BLTs (not shown) had no effects on any of these cellular properties or activities.
In the case of `c1ccc(-c2noc(-c3ccccc3)c3cccc2-3)cc1` [MIT 9952-19], the “ICFC50 for efflux compared with that for uptake” value is “higher”.

Consider `COc1ccccc1NC(=O)Nc1ccc2ccccc2c1` [MIT 9952-29], for which the “ICFC50 for efflux compared with that for uptake” value is given as “higher”.

The same assay, now with this note: inhibition of efflux to HDL, mean ± SD, n=3.
Turning to `c1ccc(-c2noc(-c3ccccc3)c3cccc2-3)cc1` [MIT 9952-19], the half-maximal effective concentration (EC50) was found to be 17.2 ± 4 µM.

For the molecule `COc1ccccc1NC(=O)Nc1ccc2ccccc2c1` [MIT 9952-29], a half-maximal effect (EC50) was put at 54.9 ± 35.2 µM.

In another assay the target is T1, murine SR-BI. Nature of the assay: 125I-HDL binding to ldlA[mSR-BI] cells. The following applies: 125I-HDL binding sites in presence of BLT at its ICCE95; no BLT control 100.0 ± 18.4. On the procedure: as §1, §2
It was initially expected that the BLTs would function by inhibiting HDL binding to SR-BI. However, when cells were incubated with a sub-saturating concentration of either [^3H]CE-HDL or ^125I-labeled HDL (^125I-HDL) (10 μg protein/ml) and increasing amounts of compound (FIG. 5), the decreases in [^3H]CE uptake (solid lines, no symbols, data from FIG. 2B) and [3H]cholesterol efflux (dashed lines, data from FIG. 2C) were accompanied by corresponding increases in ^125I-HDL binding (solid lines, square symbols). The concentration dependence of ^125I-HDL binding was determined in the presence or absence of BLTs at their ICCE95 concentrations (FIG. 6 and Table II).
For `c1ccc(-c2noc(-c3ccccc3)c3cccc2-3)cc1` [MIT 9952-19], the “(B) Binding Parameters Bmax” value is reported as 85.8 ± 15.8%.

Take `COc1ccccc1NC(=O)Nc1ccc2ccccc2c1` [MIT 9952-29]: the “(B) Binding Parameters Bmax” value amounted to 79.9 ± 15.9%.

Still in this assay, the particulars now being: ldlA[mSR-BI] cells.
As for `c1ccc(-c2noc(-c3ccccc3)c3cccc2-3)cc1` [MIT 9952-19], the “Effect on HDL binding to SR-BI” value is recorded as “enhanced”.

Regarding `COc1ccccc1NC(=O)Nc1ccc2ccccc2c1` [MIT 9952-29], the “Effect on HDL binding to SR-BI” value is recorded as “enhanced”.

Still in this assay, the particulars now being: ldlA[mSR-BI] cells; enhancement of HDL binding, 10 μg protein/ml HDL; mean ± SD, n=3; read-out: (A) EC50 ^1nI-HDL binding.
For the molecule `c1ccc(-c2noc(-c3ccccc3)c3cccc2-3)cc1` [MIT 9952-19], the concentration giving a half-maximal response (EC50) was determined as 46.5 ± 49.3 µM.

Regarding `COc1ccccc1NC(=O)Nc1ccc2ccccc2c1` [MIT 9952-29], the EC50 amounted to 24.9 ± 14.8 µM.

For another assay, the target named is T1, murine SR-BI. Nature of the assay: Rate of 125I-HDL dissociation from cells. The conditions noted are these: dissociation of 125I-HDL from ldlA[mSR-BI] cells in presence of BLT; no BLT control 0.11; n=2; read-out: (B) Binding Parameters Koff (converted). On the procedure:
The rates of HDL dissociation from cells were determined by incubation of the cells with ^125I-HDL (10 μg protein/ml, 2 hrs, 37° C.) with and without BLTs. The medium was then either replaced with the same medium in which the ^125I-HDL was substituted by a 40-fold excess of unlabeled HDL or a 40-fold excess of unlabeled HDL was added to the labeled incubation medium. The amounts of cell-associated ^125I-HDL were then determined as a function of time. The two methods gave similar results.
As usually defined, the koff is the first-order rate constant of dissociation. Take `c1ccc(-c2noc(-c3ccccc3)c3cccc2-3)cc1` [MIT 9952-19]: the koff is 0.00133 s⁻¹.

As for `COc1ccccc1NC(=O)Nc1ccc2ccccc2c1` [MIT 9952-29], the off-rate (koff) was 0.00137 s⁻¹.
